Results from publication PMC5218480 (PLoS ONE, 2017).

Tested on: MV-4-11 cells
Experiment: Gene expression microarray analysis (Affymetrix PrimeView) and GSEA
Type: cell-based, human
Design: RFU PODN (11730768_x_at) / Fold change /veh PODN (11730768_x_at) / RFU LINC00158 (11744669_a_at) / Fold change /veh LINC00158 (11744669_a_at) / RFU DUSP10 (11751237_a_at) / Fold change /veh DUSP10 (11751237_a_at) / RFU ID3 (11757404_x_at) / Fold change /veh ID3 (11757404_x_at) / RFU PLEKHG5 (11737974_s_at) / Fold change /veh PLEKHG5 (11737974_s_at) / RFU LRRC4B (11730491_at) / Fold change /veh LRRC4B (11730491_at) / RFU GIMAP4 (11747438_a_at) / Fold change /veh GIMAP4 (11747438_a_at) / RFU KRT8 (11758183_x_at) / Fold change /veh KRT8 (11758183_x_at) / RFU CNN1 (11734310_a_at) / Fold change /veh CNN1 (11734310_a_at) / RFU VPS37D (11726825_at) / Fold change /veh VPS37D (11726825_at) / RFU C10orf10 (11716522_x_at) / Fold change /veh C10orf10 (11716522_x_at) / RFU KIR2DL2 /// KIR2DL4 /// KIR2DL5A /// KIR2DL5B /// KIR2DS1 /// KIR2DS2 /// KIR2DS3 /// KIR2DS4 /// KIR3DL3 /// KIR3DL3 /// KIR3DS1 (11738374_at) / Fold change /veh KIR2DL2 /// KIR2DL4 /// KIR2DL5A /// KIR2DL5B /// KIR2DS1 /// KIR2DS2 /// KIR2DS3 /// KIR2DS4 /// KIR3DL3 /// KIR3DL3 /// KIR3DS1 (11738374_at) / RFU C1QL1 (11718748_at) / Fold change /veh C1QL1 (11718748_at) / RFU TMPRSS4 (11747572_a_at) / Fold change /veh TMPRSS4 (11747572_a_at) / RFU HAMP (11756126_x_at) / Fold change /veh HAMP (11756126_x_at) / RFU RNFT2 (11725882_a_at) / Fold change /veh RNFT2 (11725882_a_at) / RFU NR4A2 (11747474_a_at) / Fold change /veh NR4A2 (11747474_a_at) / RFU ABCC12 (11746883_a_at) / Fold change /veh ABCC12 (11746883_a_at) / RFU TMEM136 (11760407_x_at) / Fold change /veh TMEM136 (11760407_x_at) / RFU CLDN22 /// WWC2 (11732394_at) / Fold change /veh CLDN22 /// WWC2 (11732394_at) / RFU HLA-DPB1 (11760878_x_at) / Fold change /veh HLA-DPB1 (11760878_x_at) / RFU SPINT1 (11716480_a_at) / Fold change /veh SPINT1 (11716480_a_at) / RFU GAP43 (11754022_s_at) / Fold change /veh GAP43 (11754022_s_at) / RFU A4GNT (11735810_at) / Fold change /veh A4GNT (11735810_at) / RFU PRB3 (11715151_x_at) / Fold change /veh PRB3 (11715151_x_at) / RFU TUBB4B (11761932_at) / Fold change /veh TUBB4B (11761932_at) / RFU CAPN14 (11732068_a_at) / Fold change /veh CAPN14 (11732068_a_at) / RFU TMCC2 (11721928_a_at) / Fold change /veh TMCC2 (11721928_a_at) / RFU IRGQ (11745062_a_at) / Fold change /veh IRGQ (11745062_a_at) / RFU FAM174B (11720279_a_at) / Fold change /veh FAM174B (11720279_a_at) / RFU TMPRSS4 (11748680_a_at) / Fold change /veh TMPRSS4 (11748680_a_at) / RFU FAM212B (11763350_a_at) / Fold change /veh FAM212B (11763350_a_at) / RFU PLEKHG5 (11743358_a_at) / Fold change /veh PLEKHG5 (11743358_a_at) / RFU ZSCAN30 (11745921_a_at) / Fold change /veh ZSCAN30 (11745921_a_at) / RFU CMKLR1 (11741424_a_at) / Fold change /veh CMKLR1 (11741424_a_at) / RFU LOC101060620 /// MAPK8IP1 (11723275_at) / Fold change /veh LOC101060620 /// MAPK8IP1 (11723275_at) / RFU SPTSSB (11747773_x_at) / Fold change /veh SPTSSB (11747773_x_at) / RFU PRSS12 (11739890_at) / Fold change /veh PRSS12 (11739890_at) / RFU BIN1 (11741810_x_at) / Fold change /veh BIN1 (11741810_x_at) / RFU WNT11 (11732464_a_at) / Fold change /veh WNT11 (11732464_a_at) / RFU C10orf10 (11716521_a_at) / Fold change /veh C10orf10 (11716521_a_at) / RFU C5orf56 (11738089_at) / Fold change /veh C5orf56 (11738089_at) / RFU CYB561 (11721691_x_at) / Fold change /veh CYB561 (11721691_x_at) / RFU ANKRD19P (11752326_a_at) / Fold change /veh ANKRD19P (11752326_a_at) / RFU OR2T12 /// OR2T33 /// OR2T8 (11738714_s_at) / Fold change /veh OR2T12 /// OR2T33 /// OR2T8 (11738714_s_at) / RFU VCAN (11748164_a_at) / Fold change /veh VCAN (11748164_a_at) / RFU JSRP1 (11732532_at) / Fold change /veh JSRP1 (11732532_at) / RFU KRTAP10-11 (11738290_x_at) / Fold change /veh KRTAP10-11 (11738290_x_at) / RFU MYO3A (11730013_a_at) / Fold change /veh MYO3A (11730013_a_at) / RFU EBF3 (11725865_a_at) / Fold change /veh EBF3 (11725865_a_at) / RFU CAMK2N1 (11719241_x_at) / Fold change /veh CAMK2N1 (11719241_x_at) / RFU C5orf56 (11738088_a_at) / Fold change /veh C5orf56 (11738088_a_at) / RFU OLFML3 (11715873_a_at) / Fold change /veh OLFML3 (11715873_a_at) / RFU LOC100653217 /// NTM (11731650_a_at) / Fold change /veh LOC100653217 /// NTM (11731650_a_at) / RFU MAPK11 (11762145_a_at) / Fold change /veh MAPK11 (11762145_a_at) / RFU FIZ1 (11724087_x_at) / Fold change /veh FIZ1 (11724087_x_at) / RFU OASL (11726364_x_at) / Fold change /veh OASL (11726364_x_at) / RFU SOX15 (11748057_x_at) / Fold change /veh SOX15 (11748057_x_at) / RFU CD79A (11719716_a_at) / Fold change /veh CD79A (11719716_a_at) / RFU HIST1H1D (11736915_at) / Fold change /veh HIST1H1D (11736915_at) / RFU CASKIN2 (11723855_a_at) / Fold change /veh CASKIN2 (11723855_a_at) / RFU LOC730098 (11760151_x_at) / Fold change /veh LOC730098 (11760151_x_at) / RFU OR4N2 (11742367_at) / Fold change /veh OR4N2 (11742367_at) / RFU PRRT2 (11749266_a_at) / Fold change /veh PRRT2 (11749266_a_at) / RFU SNX32 (11753110_a_at) / Fold change /veh SNX32 (11753110_a_at) / RFU CDHR5 (11726645_a_at) / Fold change /veh CDHR5 (11726645_a_at) / RFU RCAN1 (11760418_a_at) / Fold change /veh RCAN1 (11760418_a_at) / RFU FAM167A (11723789_a_at) / Fold change /veh FAM167A (11723789_a_at) / RFU FAM26E (11764081_at) / Fold change /veh FAM26E (11764081_at) / RFU ISYNA1 (11749810_s_at) / Fold change /veh ISYNA1 (11749810_s_at) / RFU ACY1 (11761880_at) / Fold change /veh ACY1 (11761880_at) / RFU 11764098_at / Fold change /veh 11764098_at / RFU SAMD14 (11745864_x_at) / Fold change /veh SAMD14 (11745864_x_at) / RFU NPB (11741838_a_at) / Fold change /veh NPB (11741838_a_at) / RFU TMPRSS6 (11731388_a_at) / Fold change /veh TMPRSS6 (11731388_a_at) / RFU KRTAP10-2 (11738614_at) / Fold change /veh KRTAP10-2 (11738614_at) / RFU ARHGAP8 /// PRR5-ARHGAP8 (11727945_x_at) / Fold change /veh ARHGAP8 /// PRR5-ARHGAP8 (11727945_x_at) / RFU KRTAP5-7 /// NADSYN1 (11734609_at) / Fold change /veh KRTAP5-7 /// NADSYN1 (11734609_at) / RFU RASL12 (11751679_a_at) / Fold change /veh RASL12 (11751679_a_at) / RFU CDKN2B (11736163_a_at) / Fold change /veh CDKN2B (11736163_a_at) / RFU PRF1 (11729649_at) / Fold change /veh PRF1 (11729649_at) / RFU, ZNF638 /// ZNF638-IT1 / Fold change vs veh, ZNF638 /// ZNF638-IT1 / RFU, PANK3 / Fold change vs veh, PANK3 / RFU, SH3YL1 / Fold change vs veh, SH3YL1 / RFU, ZEB2 / Fold change vs veh, ZEB2 / RFU, NRIP1 / Fold change vs veh, NRIP1 / RFU, PTTG1IP / Fold change vs veh, PTTG1IP / RFU, CAPN2 / Fold change vs veh, CAPN2 / RFU, MED14 / Fold change vs veh, MED14 / RFU, SNORA58 / Fold change vs veh, SNORA58 / RFU, C1orf63 / Fold change vs veh, C1orf63 / RFU, LRRFIP1 / Fold change vs veh, LRRFIP1 / RFU, NDUFAF7 / Fold change vs veh, NDUFAF7 / RFU, SLC12A2 / Fold change vs veh, SLC12A2 / RFU, IBTK / Fold change vs veh, IBTK / RFU, ESF1 / Fold change vs veh, ESF1 / Fold change vs veh, TMEM50B / RFU, TAOK1 / Fold change vs veh, TAOK1 / RFU, ACBD3 / Fold change vs veh, ACBD3 / RFU, TMA16 / Fold change vs veh, TMA16 / RFU, RWDD3 / Fold change vs veh, RWDD3 / RFU, BCAT1 / Fold change vs veh, BCAT1 / RFU, EDEM3 / Fold change vs veh, EDEM3 / RFU, TMEM33 / Fold change vs veh, TMEM33 / RFU, WDR75 / Fold change vs veh, WDR75 / RFU, AHCTF1 / Fold change vs veh, AHCTF1 / RFU, TFRC / Fold change vs veh, TFRC / RFU, ZDHHC17 / Fold change vs veh, ZDHHC17 / RFU, NOM1 / Fold change vs veh, NOM1 / RFU, ARL8B / Fold change vs veh, ARL8B / RFU, ZBTB11 / Fold change vs veh, ZBTB11 / RFU, TAMM41 / Fold change vs veh, TAMM41 / RFU, KIAA1704 /// LOC100996395 / Fold change vs veh, KIAA1704 /// LOC100996395 / RFU, ING1 / Fold change vs veh, ING1 / RFU, TRMT61B / Fold change vs veh, TRMT61B / RFU, FUBP3 / Fold change vs veh, FUBP3 / RFU, TP53 / Fold change vs veh, TP53 / RFU, TNKS2 / Fold change vs veh, TNKS2 / RFU, ZFP14 / Fold change vs veh, ZFP14 / RFU, ACTR2 / Fold change vs veh, ACTR2 / RFU, PPP3R1 / Fold change vs veh, PPP3R1 / RFU, PIK3R1 / Fold change vs veh, PIK3R1 / RFU, HNRNPA1 / Fold change vs veh, HNRNPA1 / RFU, RNF170 / Fold change vs veh, RNF170 / RFU, ZNF28 / Fold change vs veh, ZNF28 / RFU, RNGTT / Fold change vs veh, RNGTT / RFU, OGT / Fold change vs veh, OGT / RFU, BRD1 / Fold change vs veh, BRD1 / RFU, MARS / Fold change vs veh, MARS / RFU, ZNF655 / Fold change vs veh, ZNF655 / RFU, FAHD1 / Fold change vs veh, FAHD1 / RFU, BDP1 / Fold change vs veh, BDP1 / RFU, LRRCC1 / Fold change vs veh, LRRCC1 / RFU, ARID1A / Fold change vs veh, ARID1A / RFU, ZNF146 / Fold change vs veh, ZNF146 / RFU, ZNF330 / Fold change vs veh, ZNF330 / RFU, GPN3 / Fold change vs veh, GPN3 / RFU, C9orf123 / Fold change vs veh, C9orf123 / RFU, N4BP2L2 / Fold change vs veh, N4BP2L2 / RFU, ARFIP1 / Fold change vs veh, ARFIP1 / RFU, FAM179B / Fold change vs veh, FAM179B / RFU, BCL10 / Fold change vs veh, BCL10 / RFU, UHRF1BP1L / Fold change vs veh, UHRF1BP1L / RFU, BET1 / Fold change vs veh, BET1 / RFU, CNOT2 / Fold change vs veh, CNOT2 / RFU, ZNF268 / Fold change vs veh, ZNF268 / Fold change vs veh, ZNF507 / RFU, DGCR2 / Fold change vs veh, DGCR2 / RFU, WDSUB1 / Fold change vs veh, WDSUB1 / Fold change vs veh, HSP90B1 /// MIR3652 / RFU, ADSS / Fold change vs veh, ADSS / RFU, GK / Fold change vs veh, GK / RFU, ZNF148 / Fold change vs veh, ZNF148 / RFU, TAF9 / Fold change vs veh, TAF9 / RFU, SLC1A5 / Fold change vs veh, SLC1A5 / RFU, SLMO2 / Fold change vs veh, SLMO2 / RFU, ABCC4 / Fold change vs veh, ABCC4 / RFU, LOC101060439 /// RAP1B / Fold change vs veh, LOC101060439 /// RAP1B / RFU, RFX7 / Fold change vs veh, RFX7 / RFU, GTPBP10 / Fold change vs veh, GTPBP10 / RFU, CNEP1R1 / Fold change vs veh, CNEP1R1 / RFU, BIVM-ERCC5 /// ERCC5 / Fold change vs veh, BIVM-ERCC5 /// ERCC5 / RFU, ILF3 / Fold change vs veh, ILF3 / RFU 11762660_at / Fold change /veh 11762660_at / RFU VCAN (11757783_s_at) / Fold change /veh VCAN (11757783_s_at) / RFU DDX43 (11728927_at) / Fold change /veh DDX43 (11728927_at) / RFU KRT8 (11758188_x_at) / Fold change /veh KRT8 (11758188_x_at) / RFU NKD1 (11759106_at) / Fold change /veh NKD1 (11759106_at) / RFU SRD5A1 (11742802_a_at) / Fold change /veh SRD5A1 (11742802_a_at) / RFU TPSAB1 /// TPSB2 (11721975_s_at) / Fold change /veh TPSAB1 /// TPSB2 (11721975_s_at) / RFU GSTM3 (11746129_a_at) / Fold change /veh GSTM3 (11746129_a_at) / RFU IL23R (11737362_x_at) / Fold change /veh IL23R (11737362_x_at) / RFU TMEM51 (11727254_a_at) / Fold change /veh TMEM51 (11727254_a_at) / RFU PIWIL2 (11732686_x_at) / Fold change /veh PIWIL2 (11732686_x_at) / RFU ORM1 (11744905_x_at) / Fold change /veh ORM1 (11744905_x_at) / RFU CCDC152 (11743942_at) / Fold change /veh CCDC152 (11743942_at) / RFU ECM1 (11717891_a_at) / Fold change /veh ECM1 (11717891_a_at) / RFU IL23R (11748794_a_at) / Fold change /veh IL23R (11748794_a_at) / RFU TNFAIP8L3 (11732012_x_at) / Fold change /veh TNFAIP8L3 (11732012_x_at) / RFU MBOAT4 (11741988_at) / Fold change /veh MBOAT4 (11741988_at) / RFU 11764193_at / Fold change /veh 11764193_at / RFU TMEM53 (11763286_at) / Fold change /veh TMEM53 (11763286_at) / RFU MAGEB2 (11727129_at) / Fold change /veh MAGEB2 (11727129_at) / RFU TMEM200A (11744735_a_at) / Fold change /veh TMEM200A (11744735_a_at) / RFU CCDC152 (11751479_a_at) / Fold change /veh CCDC152 (11751479_a_at) / RFU FAM211A (11726209_a_at) / Fold change /veh FAM211A (11726209_a_at) / RFU RGS16 (11746705_a_at) / Fold change /veh RGS16 (11746705_a_at) / RFU VCAN (11755009_s_at) / Fold change /veh VCAN (11755009_s_at) / RFU RHOB (11743442_s_at) / Fold change /veh RHOB (11743442_s_at) / RFU RGS16 (11720943_a_at) / Fold change /veh RGS16 (11720943_a_at) / RFU RGS16 (11720944_at) / Fold change /veh RGS16 (11720944_at) / RFU, VPS4B / Fold change vs veh, VPS4B / RFU, CREB1 / Fold change vs veh, CREB1 / RFU, DNAJC13 / Fold change vs veh, DNAJC13 / RFU, GNAQ / Fold change vs veh, GNAQ / RFU, CDK5R1 / Fold change vs veh, CDK5R1 / RFU, ZRANB3 / Fold change vs veh, ZRANB3 / RFU, CUL4A / Fold change vs veh, CUL4A / RFU, CCNY / Fold change vs veh, CCNY / RFU, UFL1 / Fold change vs veh, UFL1 / RFU, COG3 / Fold change vs veh, COG3 / RFU, DIAPH2 / Fold change vs veh, DIAPH2 / RFU, SKA2 / Fold change vs veh, SKA2 / RFU, AFF3 / Fold change vs veh, AFF3 / RFU, LMF1 / Fold change vs veh, LMF1 / RFU, IPO11 / Fold change vs veh, IPO11 / RFU, DFFB / Fold change vs veh, DFFB / RFU, FOXP1 / Fold change vs veh, FOXP1 / RFU, CARD8 / Fold change vs veh, CARD8 / RFU, STRN3 / Fold change vs veh, STRN3 / RFU, ADK / Fold change vs veh, ADK / RFU, RASSF2 / Fold change vs veh, RASSF2 / RFU, WIPF1 / Fold change vs veh, WIPF1 / RFU, LARP1B / Fold change vs veh, LARP1B / RFU, RASA1 / Fold change vs veh, RASA1 / RFU, RB1 / Fold change vs veh, RB1 / RFU, PPFIA1 / Fold change vs veh, PPFIA1 / RFU, MAT2A / Fold change vs veh, MAT2A / RFU, CCT5 / Fold change vs veh, CCT5 / RFU, WDR92 / Fold change vs veh, WDR92 / RFU, CUX1 / Fold change vs veh, CUX1 / RFU, TTC7A / Fold change vs veh, TTC7A / RFU, TMEM135 / Fold change vs veh, TMEM135 / RFU, DEPTOR / Fold change vs veh, DEPTOR / RFU, CPM / Fold change vs veh, CPM / RFU, DNAJB6 / Fold change vs veh, DNAJB6 / RFU, CACNA2D3 / Fold change vs veh, CACNA2D3 / RFU, DTX4 / Fold change vs veh, DTX4 / RFU, TFCP2 / Fold change vs veh, TFCP2 / RFU, GMCL1 /// GMCL1P1 / Fold change vs veh, GMCL1 /// GMCL1P1 / RFU, AEBP2 / Fold change vs veh, AEBP2 / RFU, SNHG1 /// SNORD22 /// SNORD25 /// SNORD26 /// SNORD27 /// SNORD28 /// SNORD29 /// SNORD31 / Fold change vs veh, SNHG1 /// SNORD22 /// SNORD25 /// SNORD26 /// SNORD27 /// SNORD28 /// SNORD29 /// SNORD31 / Fold change (Aza/veh), C12orf56 (ProbeSet 11735607_a_at) / Fold change (ACY-1035/veh), C12orf56 (ProbeSet 11735607_a_at) / Fold change (Aza/veh), FGFR1OP (ProbeSet 11751329_s_at) / Fold change (ACY-1035/veh), FGFR1OP (ProbeSet 11751329_s_at) / Fold change (Aza/veh), VPS36 (ProbeSet 11739960_a_at) / Fold change (ACY-1035/veh), VPS36 (ProbeSet 11739960_a_at) / RFU SYPL1 (11715823_x_at) / Fold change /veh SYPL1 (11715823_x_at) / RFU IGFBP7 (11715501_s_at) / Fold change /veh IGFBP7 (11715501_s_at) / RFU REEP3 (11722064_at) / Fold change /veh REEP3 (11722064_at) / RFU IGLL1 (11728026_x_at) / Fold change /veh IGLL1 (11728026_x_at): dose or concentration left out as unconfirmed
Settings: ProbeSet 11754362_a_at; LIST D

Nc1ncn([C@@H]2O[C@H](CO)[C@@H](O)[C@H]2O)c(=O)n1 [azacitidine]
Fold change vs veh, TTC7A: 0.72
